Test results taken from patent US20130096012A1, “METHOD AND KIT FOR IDENTIFYING A TRANSLATION INITIATION SITE ON AN MRNA” (CORNELL UNIVERSITY, priority 2011, published 2013).

How the values were obtained:
[1] = tested on: HEK293 cells; experiment: Polysome profiling by sucrose gradient sedimentation of drug-treated cells; type: cell-based, Human; conditions: 100 μM CHX or 50 μM LTM, 30 min, compared to no-drug treatment (DMSO), FIG. 7
Procedure: FIG. 7 is a series of graphs showing polysome profile analysis in cells treated with ribosome E-site translation inhibitors. In particular, HEK293 cells were pre-treated with equal volume of DMSO, 100 μM CHX, or 50 μM LTM for 30 min followed by sucrose gradient sedimentation. Both 80S monosome and polysome peaks are indicated.
HEK293 or MEF cells were treated with 100 μM CHX, 50 μM LTM, 2 μg/ml harringtonine or DMSO at 37° C. for 30 min. Cells were lysed in polysome buffer and cleared lysates were separated by sedimentation through sucrose gradients. Collected polysome fractions were digested with RNase I and the RPF fragments were size selected and purified by gel extraction. […] The trimmed RPF reads with final lengths of 26-29 nt were aligned to the RefSeq transcript sequences by Bowtie-0.12.7 allowing one mismatch. A TIS position on individual transcript was called if the normalized LTM reads density at the every nucleotide position subtracting with that of CHX was well above the background. In analysis of non-coding RNA, only reads unique to single ncRNA were used. […]
Sucrose solution was prepared in polysome buffer (pH 7.4, 10 mM HEPES, 100 mM KCl, 5 mM MgCl2). […] Separated samples were fractionated at 0.750 ml/min through a fractionation system (Isco) that continually monitored OD254 values. […]

[2] = tested on: HEK293 cells; experiment: Ribosome profiling (deep sequencing of ribosome-protected mRNA fragments, GTI-seq) of drug-treated cells; type: cell-based, Human; conditions: 30 min, FIG. 1C; for distribution of RPF reads relative to the annotated start codon: 100 μM CHX, 50 μM LTM or 2 μg/ml harringtonine, metagene analysis, 1D
Text: FIGS. 1A-D show the experimental strategy of GTI-seq using ribosome E-site translation inhibitors. Specifically, FIG. 1A is a schematic diagram of the experimental design for GTI-seq. Translation inhibitors cycloheximide (“CHX”) and lactimidomycin (“LTM”) bind to the ribosome E-site, resulting in inhibition of translocation. While CHX binds to all translating ribosomes (FIG. 1A, left panel), LTM preferably incorporates into the initiating ribosomes when the E-site is free of tRNA (FIG. 1A, right panel). FIG. 1B is a schematic illustration showing ribosome profiling using CHX and LTM side-by-side, which allows distinguishing the initiating ribosome from the elongating one. FIG. 1C is a graph showing data related to HEK293 cells being treated with either DMSO, 100 μM CHX, or 50 μM LTM for 30 min before ribosome profiling. Normalized RPF reads were averaged across the entire transcriptome, aligned at either their start site or stop codon. FIG. 1D presents two graphs showing metagene analysis of RPFs obtained from HEK293 cells treated with either harringtonine (FIG. 1D, left panel) or LTM (FIG. 1D, right panel). All mapped reads were aligned at the annotated start codon AUG, and the reads density at each nucleotide position was averaged using the P-site of RPFs.
HEK293 or MEF cells were treated with 100 μM CHX, 50 μM LTM, 2 μg/ml harringtonine or DMSO at 37° C. for 30 min. Cells were lysed in polysome buffer and cleared lysates were separated by sedimentation through sucrose gradients. Collected polysome fractions were digested with RNase I and the RPF fragments were size selected and purified by gel extraction. After the construction of sequencing library from these fragments, deep sequencing was performed using IlluminaHiSEQ. The trimmed RPF reads with final lengths of 26-29 nt were aligned to the RefSeq transcript sequences by Bowtie-0.12.7 allowing one mismatch. A TIS position on individual transcript was called if the normalized LTM reads density at the every nucleotide position subtracting with that of CHX was well above the background. In analysis of non-coding RNA, only reads unique to single ncRNA were used. To experimentally validate the identified TIS codons, specific genes encompassing both the 5′UTR and the CDS were amplified by RT-PCR from total cellular RNAs extracted from HEK293 cells. The resultant cDNAs were cloned into pcDNA3.1 containing c-myc tag at the COOH-terminus. After transfection into HEK293 cells, whole cell lysates were used for immunoblotting using anti-myc antibody.
Human HEK293 and mouse embryonic fibroblast (“MEF”) were maintained in Dulbecco's Modified Eagle's Medium (“DMEM”) with 10% fetal bovine serum (“FBS”). Cycloheximide was purchased from Sigma and harringtonine from LKT Laboratories. […]

Row | Structure (SMILES) | effect on polysome profile (80S monosome and polysome peaks) [1] | distribution of RPF reads relative to the annotated start codon [2] | effect on ribosome (RPF) density at the stop codon ([2]; 50 μM LTM, versus untreated cells or CHX)
1 | C[C@@H]1C[C@@H]([C@H](O)CC2CC(=O)NC(=O)C2)C(=O)[C@@H](C)C1 [CHX, cycloheximide] | slightly stabilized the polysomes | an excess of RPFs at the beginning of ORFs in addition to the body of CDS | –
2 | C/C(=C\[C@H](C)C(=O)C[C@H](O)CC1CC(=O)NC(=O)C1)[C@@H]1OC(=O)/C=C/CC/C=C/C=C\[C@@H]1C [LTM, lactimidomycin] | large increase in monosome accompanied by a depletion of polysomes | pronounced single peak located at the −12 nucleotide (nt) position relative to the annotated start codon | eliminated the excess of ribosomes seen at the stop codon
3 | COC(=O)C[C@](O)(CCC(C)(C)O)C(=O)O[C@@H]1C(OC)=C[C@]23CCCN2CCc2cc4c(cc2[C@H]13)OCO4 [harringtonine] | – | a substantial fraction of RPFs accumulated in regions downstream of the start codon | –
